# Experimental data reported in patent publication US20250288589A1, “PYRIDOPYRIMIDINES AND METHODS OF THEIR USE” (Kineta, Inc., priority 2021, published 2025).
# pIC50: −log10 of the molar value. Structures can show the parent of a compound that is named as a salt.
# Biological target: T1, full-length human PIKFYVE (Homo sapiens, UniProt Q9Y2I7, L932S/Q1183K/Q995L/S1033A/S696N/T998S)
# T1 construct: A full-length human PIKFYVE [1-2098(end) amino acids and S696N, L932S, Q995L, T998S, S1033A and Q1183K; purchased Carna Biosciences; host or cells: baculovirus expression system
# Test: PIKfyve biochemical assay (ADP-Glo Kinase assay, Carna Biosciences)
# Conditions: GST-PIKFYVE, 10 μM to 3 nM in duplicate, read-out: hPIKfyve IC50
# From the text: (§1) PIKfyve Biochemical Assay. The biochemical PIKFyve inhibition assays were run by Carna Biosciences according to proprietary methodology based on the Promega ADP-Glo™ Kinase assay. A full-length human PIKFYVE [1-2098(end) amino acids and S696N, L932S, Q995L, T998S, S1033A and Q1183K of the protein having the sequence set forth in NCBI Reference Sequence No. NP_055855.2] was expressed as N-terminal GST-fusion protein (265 kDa) using baculovirus expression system. GST-PIKFYVE was purified by using glutathione sepharose chromatography and used in an ADP-Glo™ Kinase assay (Promega). Reactions were set up by adding the test compound solution, substrate solution, ATP solution and kinase solution, each at 4× final concentrations. Reactions were prepared with assay buffer (50 mM MOPS, 1 mM DTT, pH7.2), mixed, and incubated in black 384 well polystyrene plates for 1 hour at room temperature. ADP-Glo™ reagent was then added for 40 minutes, followed by kinase detection reagent for an additional 40 minutes. The kinase activity was evaluated by detecting relative light units on a luminescence plate reader. Samples were run in duplicate from 10 μM to 3 nM. […] IC50 values were calculated from concentration vs % inhibition curves by fitting to a four-parameter logistic curve.
# as §1, with “The” for “PIKfyve Biochemical Assay. The”, “accession number” for “the protein having the sequence set forth in NCBI Reference Sequence No.”, “uM” for “μM”
# T1 sequence (Q9Y2I7 whole entry S696N/L932S/Q995L/T998S/S1033A/Q1183K): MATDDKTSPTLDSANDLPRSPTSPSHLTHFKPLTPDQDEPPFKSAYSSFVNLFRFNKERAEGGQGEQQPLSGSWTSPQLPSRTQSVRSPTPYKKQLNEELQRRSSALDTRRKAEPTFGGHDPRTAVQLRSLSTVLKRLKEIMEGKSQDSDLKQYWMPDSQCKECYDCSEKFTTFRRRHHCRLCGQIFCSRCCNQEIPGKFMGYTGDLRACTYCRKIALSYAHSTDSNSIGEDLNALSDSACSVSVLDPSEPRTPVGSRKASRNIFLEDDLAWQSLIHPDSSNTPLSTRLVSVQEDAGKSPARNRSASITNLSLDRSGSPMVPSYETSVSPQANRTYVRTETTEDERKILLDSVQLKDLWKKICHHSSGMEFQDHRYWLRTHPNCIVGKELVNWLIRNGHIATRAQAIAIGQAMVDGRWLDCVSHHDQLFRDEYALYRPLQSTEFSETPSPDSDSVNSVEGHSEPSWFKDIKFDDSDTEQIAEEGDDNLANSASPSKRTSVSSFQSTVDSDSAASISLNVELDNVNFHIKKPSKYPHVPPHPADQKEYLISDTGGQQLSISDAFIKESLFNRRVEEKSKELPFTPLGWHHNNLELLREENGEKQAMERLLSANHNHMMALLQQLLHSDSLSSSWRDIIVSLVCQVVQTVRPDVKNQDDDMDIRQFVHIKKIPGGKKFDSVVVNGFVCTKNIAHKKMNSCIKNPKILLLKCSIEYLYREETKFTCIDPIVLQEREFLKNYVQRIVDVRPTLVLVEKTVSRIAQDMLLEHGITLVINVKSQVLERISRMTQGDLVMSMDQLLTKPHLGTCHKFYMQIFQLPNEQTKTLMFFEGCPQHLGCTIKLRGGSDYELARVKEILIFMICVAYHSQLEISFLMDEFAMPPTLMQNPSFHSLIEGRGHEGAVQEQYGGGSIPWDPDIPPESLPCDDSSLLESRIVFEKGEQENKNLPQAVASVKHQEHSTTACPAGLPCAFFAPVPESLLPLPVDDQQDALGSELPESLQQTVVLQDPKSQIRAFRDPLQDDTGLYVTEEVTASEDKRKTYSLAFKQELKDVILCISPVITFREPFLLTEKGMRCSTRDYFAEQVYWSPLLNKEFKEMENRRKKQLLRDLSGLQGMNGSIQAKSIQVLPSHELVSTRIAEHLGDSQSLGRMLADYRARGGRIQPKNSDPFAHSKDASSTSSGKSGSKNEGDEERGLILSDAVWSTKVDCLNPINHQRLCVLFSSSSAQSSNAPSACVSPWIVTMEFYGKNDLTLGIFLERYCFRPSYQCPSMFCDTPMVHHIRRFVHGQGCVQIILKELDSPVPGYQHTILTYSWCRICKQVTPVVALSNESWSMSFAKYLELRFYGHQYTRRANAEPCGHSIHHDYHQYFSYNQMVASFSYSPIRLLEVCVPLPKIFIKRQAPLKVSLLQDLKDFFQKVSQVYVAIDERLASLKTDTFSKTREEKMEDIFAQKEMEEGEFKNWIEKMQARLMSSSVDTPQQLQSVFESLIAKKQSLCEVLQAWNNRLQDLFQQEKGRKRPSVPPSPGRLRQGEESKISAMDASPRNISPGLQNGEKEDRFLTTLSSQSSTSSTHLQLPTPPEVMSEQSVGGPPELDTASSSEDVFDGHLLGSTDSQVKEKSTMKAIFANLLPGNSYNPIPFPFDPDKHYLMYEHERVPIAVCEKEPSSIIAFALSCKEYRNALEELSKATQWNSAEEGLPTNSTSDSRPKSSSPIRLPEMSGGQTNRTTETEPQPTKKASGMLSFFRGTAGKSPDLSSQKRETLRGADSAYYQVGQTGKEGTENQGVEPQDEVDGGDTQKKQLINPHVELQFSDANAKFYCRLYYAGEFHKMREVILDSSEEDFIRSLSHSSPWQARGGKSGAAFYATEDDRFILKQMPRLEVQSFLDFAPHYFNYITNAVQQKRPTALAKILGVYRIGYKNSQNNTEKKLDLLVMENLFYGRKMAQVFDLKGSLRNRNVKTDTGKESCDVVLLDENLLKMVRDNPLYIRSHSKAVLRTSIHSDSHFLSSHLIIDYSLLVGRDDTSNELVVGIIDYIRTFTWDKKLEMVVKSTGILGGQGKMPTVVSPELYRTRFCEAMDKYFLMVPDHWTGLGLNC
row,Compound,pIC50
1,"c1ccc(-c2cnn(-c3nc(N4CCOCC4)c4ncccc4n3)n2)cc1 [Compound 75, 4-(2-(4-phenyl-2H-1,2,3-triazol-2-yl)pyrido[3,2-d]pyrimidin-4-yl)morpholine hydrochloride]",7.00 to 8.00
2,"Cc1ccc2c(c1)nnn2-c1nc(N2CCOCC2)c2ncccc2n1 [Compound 76, 4-(2-(5-methyl-1H-benzo[d][1,2,3]triazol-1-yl)pyrido[3,2-d]pyrimidin-4-yl)morpholine]",6.00 to 7.00
3,"O=C1N(c2nc(N3CCOCC3)c3ncccc3n2)CCN1C1CCCC1 [Compound 78, 1-cyclopentyl-3-(4-morpholinopyrido[3,2-d]pyrimidin-2-yl)imidazolidin-2-one]",< 5.00
4,"O=c1[nH]c(-c2ccccc2)nn1-c1nc(N2CCOCC2)c2ncccc2n1 [Compound 82, 2-(4-morpholinopyrido[3,2-d]pyrimidin-2-yl)-5-phenyl-4H-1,2,4-triazol-3-one]",6.00 to 7.00
5,"c1cnc2c(N3CCOCC3)nc(-c3ccnc(C4CCNCC4)n3)nc2c1 [Compound 84, 4-[2-[2-(4-piperidyl)pyrimidin-4-yl]pyrido[3,2-d]pyrimidin-4-yl]morpholine]",< 5.00
6,"CN1CCC(c2nccc(-c3nc(N4CCOCC4)c4ncccc4n3)n2)CC1 [Compound 85, 4-[2-[2-(1-methyl-4-piperidyl)pyrimidin-4-yl]pyrido[3,2-d]pyrimidin-4-yl]morpholine]",< 5.00
7,"c1ccc(-c2nccc(-c3nc(N4CCOCC4)c4ncccc4n3)n2)cc1 [Compound 90, 4-(2-(2-phenylpyrimidin-4-yl)pyrido[3,2-d]pyrimidin-4-yl)morpholine]",7.00 to 8.00
8,"c1cc(-c2nc(N3CCOCC3)c3ncccc3n2)nc(C2CCNCC2)c1 [Compound 92, 4-[2-[6-(4-piperidyl)-2-pyridyl]pyrido[3,2-d]pyrimidin-4-yl]morpholine]",5.00 to 6.00
9,"COc1cnc(-c2ccccc2)nc1-c1nc(N2CCOCC2)c2ncccc2n1 [Compound 93, 4-(2-(5-methoxy-2-phenylpyrimidin-4-yl)pyrido[3,2-d]pyrimidin-4-yl)morpholine]",6.00 to 7.00
10,"Oc1cnc(-c2ccccc2)nc1-c1nc(N2CCOCC2)c2ncccc2n1 [Compound 94, 4-(4-morpholinopyrido[3,2-d]pyrimidin-2-yl)-2-phenylpyrimidin-5-ol]",7.00 to 8.00
11,"c1ccc(-c2nccc(-c3nc(N4CCOCC4)c4ncc(N5CCOCC5)cc4n3)n2)cc1 [Compound 95, 4,4′-(2-(2-phenylpyrimidin-4-yl)pyrido[3,2-d]pyrimidine-4,7-diyl)dimorpholine]",7.00 to 8.00
12,"Cc1cnc(-c2ccccc2)nc1-c1nc(N2CCOCC2)c2ncccc2n1 [Compound 96, 4-(2-(5-methyl-2-phenylpyrimidin-4-yl)pyrido[3,2-d]pyrimidin-4-yl)morpholine]",5.00 to 6.00
13,"c1ccc(-c2cncc(-c3nc(N4CCOCC4)c4ncccc4n3)n2)cc1 [Compound 97, 4-(2-(6-phenylpyrazin-2-yl)pyrido[3,2-d]pyrimidin-4-yl)morpholine]",6.00 to 7.00
14,"c1cnc2c(N3CCOCC3)nc(-c3ccnc(-c4ccoc4)n3)nc2c1 [Compound 98, 4-(2-(2-(furan-3-yl)pyrimidin-4-yl)pyrido[3,2-d]pyrimidin-4-yl)morpholine]",5.00 to 6.00
15,"c1coc(-c2nccc(-c3nc(N4CCOCC4)c4ncccc4n3)n2)c1 [Compound 99, 4-(2-(2-(furan-2-yl)pyrimidin-4-yl)pyrido[3,2-d]pyrimidin-4-yl)morpholine]",5.00 to 6.00
16,"COc1cccc(-c2nccc(-c3nc(N4CCOCC4)c4ncccc4n3)n2)c1 [Compound 100, 4-(2-(2-(3-methoxyphenyl)pyrimidin-4-yl)pyrido[3,2-d]pyrimidin-4-yl)morpholine]",6.00 to 7.00
17,"Oc1cccc(-c2nccc(-c3nc(N4CCOCC4)c4ncccc4n3)n2)c1 [Compound 101, 3-(4-(4-morpholinopyrido[3,2-d]pyrimidin-2-yl)pyrimidin-2-yl)phenol]",6.00 to 7.00
18,"COc1cnc(-c2cccc(C)c2)nc1-c1nc(N2CCOCC2)c2ncccc2n1 [Compound 102, 4-(2-(5-methoxy-2-m-tolylpyrimidin-4-yl)pyrido[3,2-d]pyrimidin-4-yl)morpholine]",6.00 to 7.00
19,"Cc1cccc(-c2ncc(O)c(-c3nc(N4CCOCC4)c4ncccc4n3)n2)c1 [Compound 103, 4-(4-morpholinopyrido[3,2-d]pyrimidin-2-yl)-2-m-tolylpyrimidin-5-ol]",7.00 to 8.00
20,"c1ccc(-c2nccc(-c3nc(N4CCOCC4)c4ncc(-c5ccncc5)cc4n3)n2)cc1 [Compound 104, 4-(2-(2-phenylpyrimidin-4-yl)-7-(pyridin-4-yl)pyrido[3,2-d]pyrimidin-4-yl)morpholine]",> 8.00
21,"c1ccc(-c2nccc(-c3nc(N4CCOCC4)c4ncc(-c5cc[nH]n5)cc4n3)n2)cc1 [Compound 105, 4-(2-(2-phenylpyrimidin-4-yl)-7-(1H-pyrazol-3-yl)pyrido[3,2-d]pyrimidin-4-yl)morpholine]",7.00 to 8.00
22,"CC1COCCN1c1nc(-c2ccnc(-c3ccccc3)n2)nc2cccnc12 (centres unmarked) [Compound 106, 3-methyl-4-(2-(2-phenylpyrimidin-4-yl)pyrido[3,2-d]pyrimidin-4-yl)morpholine]",6.00 to 7.00
23,"COc1ccc(-c2ccccc2)nc1-c1nc(N2CCOCC2)c2ncccc2n1 [Compound 107, 4-(2-(3-methoxy-6-phenylpyridin-2-yl)pyrido[3,2-d]pyrimidin-4-yl)morpholine]",5.00 to 6.00
24,"Oc1ccc(-c2ccccc2)nc1-c1nc(N2CCOCC2)c2ncccc2n1 [Compound 108, 2-(4-morpholinopyrido[3,2-d]pyrimidin-2-yl)-6-phenylpyridin-3-ol]",7.00 to 8.00
25,"c1ccc2c(c1)cnn2-c1nc(N2CCOCC2)c2ncccc2n1 [Compound 109, 4-(2-indazol-1-ylpyrido[3,2-d]pyrimidin-4-yl)morpholine]",6.00 to 7.00
26,"Oc1cccc(/C=N/Nc2nc(N3CCOCC3)c3ncccc3n2)c1 [Compound 114, (E)-3-((2-(4-morpholinopyrido[3,2-d]pyrimidin-2-yl)hydrazono)methyl)phenol]",6.00 to 7.00
27,"Cc1cccc(/C=N/Oc2nc(N3CCOCC3)c3ncccc3n2)c1 [Compound 116, (E)-3-methylbenzaldehyde O-(4-morpholinopyrido[3,2-d]pyrimidin-2-yl) oxime]",7.00 to 8.00
28,"Clc1nc(N2CCOCC2)c2ncc(Cc3cccnc3)cc2n1 [Compound 128, 4-(2-chloro-7-(pyridin-3-ylmethyl)pyrido[3,2-d]pyrimidin-4-yl)morpholine]",< 5.00
29,"Fc1cccc(Nc2nc(N3CCOCC3)c3ncc(Cc4cccnc4)cc3n2)c1 [Compound 129, N-(3-fluorophenyl)-4-morpholino-7-(pyridin-3-ylmethyl)pyrido[3,2-d]pyrimidin-2-amine]",6.00 to 7.00
